{"source": "patent US8304419B2", "about": "“Chemical compounds” (priority 2007, dated 2012)", "note": "Structures can show the parent of a compound that is named as a salt.", "data": [{"tested_on": "HIV wild type (WTRVA)", "assay": "HeLa cell assay, wild type virus (WTRVA)", "type": "cell-based, HIV-1", "design": "scale not given here", "conditions": "Human immunodeficiency virus 1, HeLa, HeLa cell assay; read-out: IC50 against WTRVA", "units": {"IC50": "nM"}, "values": [{"smiles": "C=Cc1cc(C#N)cc(Oc2c(Cl)ccc(CNC(=O)c3[nH]cnc3Cl)c2F)c1", "note": "[Example 143, 4-chloro-N-({4-chloro-3-[(3-cyano-5-ethenylphenyl)oxy]-2-fluorophenyl}methyl)-1H-imidazole-5-carboxamide]", "IC50": "< 10"}, {"smiles": "Cc1nc(Cl)c(C(=O)NCc2ccc(Br)c(Oc3cc(Cl)cc(C#N)c3)c2F)[nH]1", "note": "[Example 231, N-({4-bromo-3-[(3-chloro-5-cyanophenyl)oxy]-2-fluorophenyl}methyl)-4-chloro-2-methyl-1H-imidazole-5-carboxamide trifluoroacetate]", "IC50": "< 10"}, {"smiles": "CC#Cc1cc(C#N)cc(Oc2c(Cl)ccc(CNC(=O)c3[nH]cnc3Cl)c2F)c1", "note": "[Example 317, 4-chloro-N-[(4-chloro-3-{[3-cyano-5-(1-propyn-1-yl)phenyl]oxy}-2-fluorophenyl)methyl]-1H-imidazole-5-carboxamide]", "IC50": "< 10"}, {"smiles": "Cc1cc(C#N)cc(Oc2c(Br)ccc(CNC(=O)c3[nH]c(N)nc3Cl)c2F)c1", "note": "[Example 240, 2-amino-N-({4-bromo-3-[(3-cyano-5-methylphenyl)oxy]-2-fluorophenyl}methyl)-4-chloro-1H-imidazole-5-carboxamide trifluoroacetate]", "IC50": "< 10"}, {"smiles": "Cc1nc(Cl)c(C(=O)NCc2ccc(C3CC3)c(Oc3cc(Cl)cc(C#N)c3)c2F)[nH]1", "note": "[Example 270, 4-Chloro-N-({3-[(3-chloro-5-cyanophenyl)oxy]-4-cyclopropyl-2-fluorophenyl}methyl)-2-methyl-1H-imidazole-5-carboxamide]", "IC50": "< 10"}, {"smiles": "N#Cc1cc(Cl)cc(Oc2c(Cl)ccc(CNC(=O)c3[nH]ccc3Br)c2F)c1", "note": "[Example 204, 3-bromo-N-({4-chloro-3-[(3-chloro-5-cyanophenyl)oxy]-2-fluorophenyl}methyl)-1H-pyrrole-2-carboxamide]", "IC50": "< 10"}, {"smiles": "N#Cc1cc(Oc2c(Cl)ccc(CNC(=O)c3[nH]cnc3Br)c2F)cc(C(F)(F)F)c1", "note": "[Example 286, 4-bromo-N-[(4-chloro-3-{[3-cyano-5-(trifluoromethyl)phenyl]oxy}-2-fluorophenyl)methyl]-1H-imidazole-5-carboxamide]", "IC50": "< 10"}, {"smiles": "Cc1nc(Cl)c(C(=O)NCc2ccc(Cl)c(Oc3cc(Br)cc(C#N)c3)c2F)[nH]1", "note": "[Example 299, N-({3-[(3-bromo-5-cyanophenyl)oxy]-4-chloro-2-fluorophenyl}methyl)-4-chloro-2-methyl-1H-imidazole-5-carboxamide]", "IC50": "< 10"}, {"smiles": "CCc1ccc(CNC(=O)c2[nH]cnc2Cl)c(F)c1Oc1cc(Cl)cc(C#N)c1", "note": "[Example 250, 4-chloro-N-({3-[(3-chloro-5-cyanophenyl)oxy]-4-ethyl-2-fluorophenyl}methyl)-1H-imidazole-5-carboxamide]", "IC50": "< 10"}, {"smiles": "N#Cc1cc(Oc2c(Cl)ccc(CNC(=O)c3[nH]c(N)nc3Cl)c2F)cc(C(F)F)c1", "note": "[Example 327, 2-amino-4-chloro-N-[(4-chloro-3-{[3-cyano-5-(difluoromethyl)phenyl]oxy}-2-fluorophenyl)methyl]-1H-imidazole-5-carboxamide trifluoroacetate]", "IC50": "< 10"}, {"smiles": "N#Cc1cc(CN2CCOCC2)cc(Oc2c(Cl)ccc(CNC(=O)c3[nH]cnc3Cl)c2F)c1", "note": "[Example 383, 4-chloro-N-[(4-chloro-3-{[3-cyano-5-(4-morpholinylmethyl)phenyl]oxy}-2-fluorophenyl)methyl]-1H-imidazole-5-carboxamide]", "IC50": "< 10"}]}, {"tested_on": "HIV wild type (WTRVA)", "assay": "HeLa cell assay, wild type virus (WTRVA)", "type": "cell-based, HIV-1", "design": "scale not given here", "conditions": "Human immunodeficiency virus 1, HeLa, HeLa-CD4-LTR-β-gal cells, wild type virus; read-out: WTRVA activity level", "units": {"IC50": "nM"}, "values": [{"smiles": "CC(=O)c1ccc2cc(C(=O)NCc3ccc(Cl)c(Oc4cc(Cl)cc(C#N)c4)c3F)[nH]c2c1", "note": "[Example 78, 6-acetyl-N-({4-chloro-3-[(3-chloro-5-cyanophenyl)oxy]-2-fluorophenyl}methyl)-1H-indole-2-carboxamide trifluoroacetate]", "IC50": "< 10"}, {"smiles": "CN(Cc1ccc(Cl)c(Oc2cc(Cl)cc(C#N)c2)c1F)C(=O)c1ncc[nH]1", "note": "[Example 130, N-({4-chloro-3-[(3-chloro-5-cyanophenyl)oxy]-2-fluorophenyl}methyl)-N-methyl-1H-imidazole-2-carboxamide]", "IC50": "< 10"}, {"smiles": "Cc1nc2ccccn2c1C(=O)NCc1ccc(Cl)c(Oc2cc(Cl)cc(C#N)c2)c1F", "note": "[Example 97, N-({4-chloro-3-[(3-chloro-5-cyanophenyl)oxy]-2-fluorophenyl}methyl)-2-methylimidazo[1,2-a]pyridine-3-carboxamide trifluoroacetate]", "IC50": "< 10"}, {"smiles": "CCCCc1nc(Cl)c(C(=O)NCc2ccc(Cl)c(Oc3cc(Cl)cc(C#N)c3)c2F)[nH]1", "note": "[Example 140, 2-butyl-4-chloro-N-({4-chloro-3-[(3-chloro-5-cyanophenyl)oxy]-2-fluorophenyl}methyl)-1H-imidazole-5-carboxamide trifluoroacetate]", "IC50": "< 10"}, {"smiles": "CN(Cc1ccc(Cl)c(Oc2cc(Cl)cc(C#N)c2)c1F)C(=O)c1[nH]cnc1Cl", "note": "[Example 132, 4-chloro-N-({4-chloro-3-[(3-chloro-5-cyanophenyl)oxy]-2-fluorophenyl}methyl)-N-methyl-1′-imidazole-5-carboxamide trifluoroacetate]", "IC50": "< 10"}, {"smiles": "CC(=O)Nc1ccc2[nH]c(C(=O)NCc3ccc(Cl)c(Oc4cc(Cl)cc(C#N)c4)c3F)nc2c1", "note": "[Example 125, 5-(acetylamino)-N-({4-chloro-3-[(3-chloro-5-cyanophenyl)oxy]-2-fluorophenyl}methyl)-1H-benzimidazole-2-carboxamide]", "IC50": "< 10"}, {"smiles": "N#Cc1cc(Cl)cc(Oc2c(Cl)ccc(CNC(=O)c3cc[nH]n3)c2F)c1", "note": "[Example 95, N-({4-chloro-3-[(3-chloro-5-cyanophenyl)oxy]-2-fluorophenyl}methyl)-1H-pyrazole-3-carboxamide]", "IC50": "10 to 1000"}, {"smiles": "Cc1cc(Br)cc2cc(C(=O)NCc3ccc(Cl)c(Oc4cc(Cl)cc(C#N)c4)c3F)[nH]c12", "note": "[Example 30, 5-bromo-N-({4-chloro-3-[(3-chloro-5-cyanophenyl)oxy]-2-fluorophenyl}methyl)-7-methyl-1H-indole-2-carboxamide]", "IC50": "10 to 1000"}, {"smiles": "N#Cc1cc(Cl)cc(Oc2c(Cl)ccc(CNC(=O)c3cn(C(c4ccccc4)(c4ccccc4)c4ccccc4)cn3)c2F)c1", "note": "[Example 83, N-({4-chloro-3-[(3-chloro-5-cyanophenyl)oxy]-2-fluorophenyl}methyl)-1-(triphenylmethyl)-1H-imidazole-4-carboxamide]", "IC50": "> 1000"}, {"smiles": "N#Cc1cc(Cl)cc(Oc2c(Cl)ccc(CNC(=O)c3cc4ccc(Cl)cc4[nH]3)c2F)c1", "note": "[Example 110, 6-chloro-N-({4-chloro-3-[(3-chloro-5-cyanophenyl)oxy]-2-fluorophenyl}methyl)-1H-indole-2-carboxamide]", "IC50": "10 to 1000"}, {"smiles": "COc1ccc2[nH]c(C(=O)NCc3ccc(Cl)c(Oc4cc(Cl)cc(C#N)c4)c3F)cc2c1", "note": "[Example 20, N-({4-chloro-3-[(3-chloro-5-cyanophenyl)oxy]-2-fluorophenyl}methyl)-5-(methyloxy)-1H-indole-2-carboxamide]", "IC50": "10 to 1000"}, {"smiles": "CSc1nc(C(=O)NCc2ccc(Cl)c(Oc3cc(Cl)cc(C#N)c3)c2F)cn1C(c1ccccc1)(c1ccccc1)c1ccccc1", "note": "[Example 65, N-({4-chloro-3-[(3-chloro-5-cyanophenyl)oxy]-2-fluorophenyl}methyl)-2-(methylthio)-1-(triphenylmethyl)-1H-imidazole-4-carboxamide trifluoroacetate]", "IC50": "10 to 1000"}, {"smiles": "Cn1cncc1C(=O)NCc1ccc(Cl)c(Oc2cc(Cl)cc(C#N)c2)c1F", "note": "[Example 67, N-({4-chloro-3-[(3-chloro-5-cyanophenyl)oxy]-2-fluorophenyl}methyl)-1-methyl-1H-imidazole-5-carboxamide trifluoroacetate]", "IC50": "10 to 1000"}, {"smiles": "COc1ccc2c(C(=O)NCc3ccc(Cl)c(Oc4cc(Cl)cc(C#N)c4)c3)c[nH]c2c1", "note": "[Example 3, N-({4-chloro-3-[(3-chloro-5-cyanophenyl)oxy]phenyl}methyl)-6-(methyloxy)-1H-indole-3-carboxamide]", "IC50": "> 1000"}, {"smiles": "CC(C)(C)OC(=O)N1CCO[C@@H](COc2ccc3[nH]c(C(=O)NCc4ccc(Cl)c(Oc5cc(Cl)cc(C#N)c5)c4F)cc3c2)C1", "note": "[Example 23, 1,1-dimethylethyl (2R)-2-{[(2-{[({4-chloro-3-[(3-chloro-5-cyanophenyl)oxy]-2-fluorophenyl}methyl)amino]carbonyl}-1H-indol-5-yl)oxy]methyl}-4-morpholinecarboxylate]", "IC50": "10 to 1000"}, {"smiles": "COc1ccc(C(=O)NCc2ccc(Cl)c(Oc3cc(Cl)cc(C#N)c3)c2F)cn1", "note": "[Example 42, N-({4-chloro-3-[(3-chloro-5-cyanophenyl)oxy]-2-fluorophenyl}methyl)-6-(methyloxy)-3-pyridinecarboxamide]", "IC50": "10 to 1000"}, {"smiles": "COc1ccc2[nH]c(C(=O)NCc3ccc(Cl)c(Oc4cc(Cl)cc(C#N)c4)c3F)cc2c1Br", "note": "[Example 73, 4-bromo-N-({4-chloro-3-[(3-chloro-5-cyanophenyl)oxy]-2-fluorophenyl}methyl)-5-(methyloxy)-1H-indole-2-carboxamide trifluoroacetate]", "IC50": "10 to 1000"}, {"smiles": "N#Cc1cc(Cl)cc(Oc2c(Cl)ccc(CNC(=O)c3cc4cc([N+](=O)[O-])ccc4o3)c2F)c1", "note": "[Example 50, N-({4-chloro-3-[(3-chloro-5-cyanophenyl)oxy]-2-fluorophenyl}methyl)-5-nitro-1-benzofuran-2-carboxamide trifluoroacetate]", "IC50": "10 to 1000"}, {"smiles": "N#Cc1cc(Cl)cc(Oc2c(Cl)ccc(CNC(=O)c3cc4cc(N(CC5CC5)CC5CC5)ccc4[nH]3)c2F)c1", "note": "[Example 127, 5-[bis(cyclopropylmethyl)amino]-N-({4-chloro-3-[(3-chloro-5-cyanophenyl)oxy]-2-fluorophenyl}methyl)-1H-indole-2-carboxamide]", "IC50": "10 to 1000"}, {"smiles": "CC(C)(C)OC(=O)N1CCC[C@H]1C(=O)Nc1ccc2[nH]c(C(=O)NCc3ccc(Cl)c(Oc4cc(Cl)cc(C#N)c4)c3F)cc2c1", "note": "[Example 117, 1,1-dimethylethyl (2S)-2-{[(2-{[({4-chloro-3-[(3-chloro-5-cyanophenyl)oxy]-2-fluorophenyl}methyl)amino]carbonyl}-1H-indol-5-yl)amino]carbonyl}-1-pyrrolidinecarboxylate]", "IC50": "< 10"}]}]}
